Results published in the NIST ThermoML archive (doi:10.1021/je400630f).

Assay: xn = mol fraction of the nth substance listed
Details: 100 kPa, Liquid; for viscosity: Capillary tube (Ostwald / Ubbelohde) method

CCCCCCCCCCO [decan-1-ol] + CCO
Details	mass density, 283.15 K [kg/m3]	mass density, 293.15 K [kg/m3]	mass density, 298.15 K [kg/m3]	mass density, 303.15 K [kg/m3]	mass density, 313.15 K [kg/m3]	viscosity, 283.15 K [mPa·s]	viscosity, 293.15 K [mPa·s]	viscosity, 298.15 K [mPa·s]	viscosity, 303.15 K [mPa·s]	viscosity, 313.15 K [mPa·s]
x2 = 0	836.6	829.9	826.5	823	816.2	22.06	14.5	11.47	9.61	6.9
x2 = 0.09979	835.2	828.4	825	821.5	814.6	18.94	12.7	10.22	8.604	6.221
x2 = 0.2	833.7	826.9	823.5	820	813	16.12	10.94	8.957	7.538	5.513
x2 = 0.3002	831.9	825.1	821.6	818.1	811.1	13.35	9.255	7.687	6.462	4.812
x2 = 0.3999	829.5	822.6	819.1	815.5	808.8	10.96	7.668	6.509	5.468	4.146
x2 = 0.5	827.7	820.6	817	813.5	806.4	8.705	6.278	5.387	4.547	3.51
x2 = 0.6003	824	816.8	813.2	809.5	802.1	6.674	5.013	4.346	3.726	2.92
x2 = 0.6999	820.1	812.8	808.8	805.4	797.9	4.92	3.832	3.374	2.947	2.352
x2 = 0.7997	814.6	807	803.1	799.3	791.5	3.54	2.73	2.459	2.195	1.813
x2 = 0.9	807.9	800	795.9	791.9	783.8	2.319	1.87	1.692	1.534	1.311

CCCCCCCO [heptan-1-ol] + CCO
Details	mass density, 283.15 K [kg/m3]	mass density, 293.15 K [kg/m3]	mass density, 298.15 K [kg/m3]	mass density, 303.15 K [kg/m3]	mass density, 313.15 K [kg/m3]	viscosity, 283.15 K [mPa·s]	viscosity, 293.15 K [mPa·s]	viscosity, 298.15 K [mPa·s]	viscosity, 303.15 K [mPa·s]	viscosity, 313.15 K [mPa·s]
x2 = 0	829.6	822.6	819.1	815.6	808.4	10.15	7.026	5.947	5.041	3.802
x2 = 0.1001	828.1	821.1	817.6	814	806.8	8.86	6.256	5.311	4.514	3.446
x2 = 0.2008	826.5	819.5	815.9	812.3	805.1	7.718	5.46	4.679	3.999	3.092
x2 = 0.3009	824.8	817.7	814.1	810.4	803.1	6.653	4.681	4.097	3.523	2.751
x2 = 0.4002	822.8	815.5	811.9	808.2	800.8	5.636	4.015	3.565	3.076	2.438
x2 = 0.5001	819.9	812.5	808.8	805.1	797.5	4.683	3.42	3.037	2.653	2.125
x2 = 0.6002	817.6	810.2	806.4	802.6	794.9	3.765	2.869	2.541	2.237	1.818
x2 = 0.6998	813.8	806.2	802.3	798.4	790.6	3.02	2.378	2.09	1.859	1.536
x2 = 0.8	809.9	802.1	798.1	794.1	786.1	2.4	1.943	1.702	1.523	1.28
x2 = 0.8998	804.3	796.2	792.1	788	779.7	1.851	1.535	1.375	1.222	1.04

CCCCCCCCCO [nonan-1-ol] + CCO
Details	mass density, 283.15 K [kg/m3]	mass density, 293.15 K [kg/m3]	mass density, 298.15 K [kg/m3]	mass density, 303.15 K [kg/m3]	mass density, 313.15 K [kg/m3]	viscosity, 283.15 K [mPa·s]	viscosity, 293.15 K [mPa·s]	viscosity, 298.15 K [mPa·s]	viscosity, 303.15 K [mPa·s]	viscosity, 313.15 K [mPa·s]
x2 = 0	835	828.1	824.7	821.3	814.3	17.44	11.63	9.519	7.806	5.668
x2 = 0.0999	834.1	827.2	823.8	820.3	813.3	14.81	10.17	8.427	6.931	5.108
x2 = 0.2	832	825.1	821.6	818.1	811	12.63	8.712	7.371	6.145	4.534
x2 = 0.3002	830	823.2	819.7	816.1	809	10.68	7.431	6.388	5.34	3.966
x2 = 0.4001	827.9	820.9	817.3	813.8	806.5	8.855	6.275	5.421	4.577	3.443
x2 = 0.4999	825.3	818.2	814.5	810.9	803.6	7.184	5.234	4.529	3.845	2.946
x2 = 0.6001	822.9	815.1	811.4	807.7	800.8	5.578	4.243	3.712	3.169	2.485
x2 = 0.6997	818.3	810.8	807	803.3	795.6	4.208	3.319	2.936	2.536	2.042
x2 = 0.7975	815	807.1	803.3	799.4	791.1	3.169	2.478	2.281	1.961	1.624
x2 = 0.8998	809.5	799.4	795.3	791.3	783	2.22	1.696	1.658	1.415	1.214
